± gives the uncertainty stated by the source.
Test: xn = mol fraction of the nth substance listed

CCCC[n+]1ccn(C)c1.[Br-] + N[C@@H](CO)C(=O)O + O
viscosity [mPa·s], 101.3 kPa
Settings	293.15 K	298.15 K	303.15 K	308.15 K	313.15 K
x2 = 0, x1 = 0.0007203	–	–	–	–	0.673 ± 0.06
x2 = 0.0003632, x1 = 0.00072	1.028 ± 0.061	0.917 ± 0.061	0.824 ± 0.061	0.747 ± 0.06	0.681 ± 0.06
x2 = 0.0003661, x1 = 0.001439	1.051 ± 0.061	0.94 ± 0.061	0.847 ± 0.061	0.77 ± 0.061	0.704 ± 0.06
x2 = 0.0007261, x1 = 0.0007198	1.033 ± 0.061	0.922 ± 0.061	0.829 ± 0.061	0.751 ± 0.06	0.684 ± 0.06
x2 = 0.0007318, x1 = 0.001438	1.056 ± 0.061	0.945 ± 0.061	0.852 ± 0.061	0.773 ± 0.061	0.707 ± 0.06
x2 = 0.001089, x1 = 0.0007195	1.037 ± 0.061	0.927 ± 0.061	0.833 ± 0.061	0.755 ± 0.06	0.688 ± 0.06
x2 = 0.001097, x1 = 0.001438	1.061 ± 0.061	0.95 ± 0.061	0.856 ± 0.061	0.778 ± 0.061	0.711 ± 0.06
x2 = 0.001451, x1 = 0.0007192	1.043 ± 0.061	0.931 ± 0.061	0.838 ± 0.061	0.759 ± 0.061	0.693 ± 0.06
x2 = 0.001463, x1 = 0.001437	1.067 ± 0.061	0.954 ± 0.061	0.861 ± 0.061	0.782 ± 0.061	0.716 ± 0.06
x2 = 0.001808, x1 = 0.001437	1.072 ± 0.061	0.959 ± 0.061	0.865 ± 0.061	0.787 ± 0.061	0.72 ± 0.06
x2 = 0.001813, x1 = 0.000719	1.047 ± 0.061	0.936 ± 0.061	0.842 ± 0.061	0.764 ± 0.061	0.697 ± 0.06
x2 = 0.002175, x1 = 0.0007187	1.053 ± 0.061	0.941 ± 0.061	0.847 ± 0.061	0.768 ± 0.061	0.702 ± 0.06
x2 = 0.002192, x1 = 0.001436	1.076 ± 0.061	0.963 ± 0.061	0.87 ± 0.061	0.791 ± 0.061	0.725 ± 0.06
x2 = 0.002537, x1 = 0.0007185	1.057 ± 0.061	0.946 ± 0.061	0.851 ± 0.061	0.773 ± 0.061	0.706 ± 0.06
x2 = 0.002557, x1 = 0.001436	1.082 ± 0.061	0.968 ± 0.061	0.874 ± 0.061	0.796 ± 0.061	0.729 ± 0.06

CCCC[n+]1ccn(C)c1.[Br-] + N[C@@H](Cc1ccccc1)C(=O)O + O
viscosity [mPa·s], 101.3 kPa
Settings	293.15 K	298.15 K	303.15 K	308.15 K	313.15 K
x2 = 0, x1 = 0.0007203	–	–	–	–	0.67 ± 0.1
x2 = 0.0003641, x1 = 0.00072	1 ± 0.1	0.97 ± 0.1	0.88 ± 0.1	0.77 ± 0.1	0.68 ± 0.1
x2 = 0.0003648, x1 = 0.001439	0.99 ± 0.1	0.9 ± 0.1	0.8 ± 0.1	0.66 ± 0.1	0.59 ± 0.1
x2 = 0.0007259, x1 = 0.0007198	1.02 ± 0.1	0.98 ± 0.1	0.89 ± 0.1	0.78 ± 0.1	0.69 ± 0.1
x2 = 0.0007309, x1 = 0.001438	1 ± 0.1	0.91 ± 0.1	0.81 ± 0.1	0.68 ± 0.1	0.6 ± 0.1
x2 = 0.001089, x1 = 0.0007195	1.03 ± 0.1	0.99 ± 0.1	0.91 ± 0.1	0.8 ± 0.1	0.7 ± 0.1
x2 = 0.001097, x1 = 0.001438	1.02 ± 0.1	0.92 ± 0.1	0.82 ± 0.1	0.69 ± 0.1	0.61 ± 0.1
x2 = 0.00145, x1 = 0.0007192	1.04 ± 0.1	1 ± 0.1	0.92 ± 0.1	0.81 ± 0.1	0.72 ± 0.1
x2 = 0.001463, x1 = 0.001437	1.03 ± 0.1	0.93 ± 0.1	0.83 ± 0.1	0.7 ± 0.1	0.63 ± 0.1
x2 = 0.001814, x1 = 0.000719	1.05 ± 0.1	1.02 ± 0.1	0.93 ± 0.1	0.82 ± 0.1	0.73 ± 0.1
x2 = 0.001827, x1 = 0.001437	1.04 ± 0.1	0.95 ± 0.1	0.85 ± 0.1	0.71 ± 0.1	0.64 ± 0.1
x2 = 0.002174, x1 = 0.0007187	1.07 ± 0.1	1.03 ± 0.1	0.95 ± 0.1	0.84 ± 0.1	0.74 ± 0.1
x2 = 0.002193, x1 = 0.001436	1.06 ± 0.1	0.96 ± 0.1	0.86 ± 0.1	0.73 ± 0.1	0.65 ± 0.1
x2 = 0.002537, x1 = 0.0007185	1.08 ± 0.1	1.04 ± 0.1	0.96 ± 0.1	0.85 ± 0.1	0.76 ± 0.1
x2 = 0.002556, x1 = 0.001436	1.07 ± 0.1	0.97 ± 0.1	0.87 ± 0.1	0.74 ± 0.1	0.67 ± 0.1

CC(N)C(=O)[O-].CCCC[n+]1ccn(C)c1C + O
viscosity [mPa·s], 100 kPa
Settings	x1 = 0.1003	x1 = 0.3009	x1 = 0.6987	x1 = 1
293.15 K	22.3 ± 4.5	–	200 ± 41	370 ± 77
313.15 K	–	–	70 ± 14	–
318.15 K	–	18.9 ± 3.8	–	87 ± 17

CCCCCCCCCCCC[N+](C)(C)Cc1ccccc1.[Cl-] + O
electrical conductivity [S/m], 101 kPa
Settings	293.15 K	298.15 K	303.15 K	308.15 K	313.15 K
x1 = 5.874e-05	0.0232 ± 0.0015	0.0261 ± 0.0016	0.0289 ± 0.0018	0.0318 ± 0.002	0.0349 ± 0.0022
x1 = 8e-05	0.0313 ± 0.002	0.0351 ± 0.0022	0.0389 ± 0.0025	0.0428 ± 0.0027	0.0469 ± 0.003
x1 = 9.982e-05	0.0388 ± 0.0024	0.0434 ± 0.0027	0.0481 ± 0.003	0.053 ± 0.0033	0.0579 ± 0.0037
x1 = 0.0001187	0.0459 ± 0.0029	0.0513 ± 0.0032	0.0569 ± 0.0036	0.0626 ± 0.0039	0.0686 ± 0.0043
x1 = 0.0001384	0.0531 ± 0.0033	0.0594 ± 0.0037	0.0658 ± 0.0041	0.0724 ± 0.0045	0.0792 ± 0.005
x1 = 0.0001594	0.0603 ± 0.0037	0.0673 ± 0.0042	0.0744 ± 0.0046	0.0819 ± 0.0051	0.0899 ± 0.0056
x1 = 0.000182	0.0659 ± 0.004	0.0734 ± 0.0045	0.0812 ± 0.005	0.0897 ± 0.0055	0.0989 ± 0.0061
x1 = 0.0002056	0.0702 ± 0.0043	0.0783 ± 0.0048	0.087 ± 0.0053	0.0963 ± 0.0059	0.106 ± 0.0065
x1 = 0.0002284	0.0741 ± 0.0045	0.0827 ± 0.005	0.092 ± 0.0056	0.102 ± 0.0062	0.113 ± 0.0069
x1 = 0.0002522	0.0778 ± 0.0047	0.0871 ± 0.0053	0.0969 ± 0.0059	0.108 ± 0.0066	0.12 ± 0.0073
x1 = 0.0002717	0.0809 ± 0.0049	0.0906 ± 0.0055	0.101 ± 0.0062	0.113 ± 0.0069	0.125 ± 0.0076
x1 = 0.0002895	0.0836 ± 0.0051	0.0937 ± 0.0057	0.105 ± 0.0064	0.117 ± 0.0071	0.13 ± 0.0079
x1 = 0.0003122	0.0872 ± 0.0053	0.0978 ± 0.006	0.109 ± 0.0067	0.122 ± 0.0075	0.136 ± 0.0083

CCCCCCCCCC[N+](CC)(CC)CCCCCCCCCC.[Br-] + O
electrical conductivity [S/m]
Settings	290.55 K	290.75 K	290.85 K	292.05 K	301.55 K	303.15 K	304.55 K	306.65 K	311.65 K
100 kPa, x1 = 1.08e-06	–	–	–	–	–	0.0029 ± 0.0012	–	–	–
101 kPa, x1 = 0.0004187	0.031 ± 0.013	0.033 ± 0.013	0.034 ± 0.014	0.053 ± 0.022	0.079 ± 0.032	–	0.082 ± 0.033	0.084 ± 0.034	0.089 ± 0.036
